In patent US20240350476A1 (priority 2023, published 2024):

Tests used:
[1] = oral dissolvable film containing 1.6 mg of 6-methylnicotine, placed inside the cheek, compared to a film containing 2 mg of nicotine; four volunteer subjects, self-reported
Method: Four volunteer subjects were provided with an oral dissolvable film according to the disclosure containing 1.6 mg of 6-methylnicotine and an oral dissolvable film containing 2 mg of nicotine. Each subject placed the nicotine strip against the inside of their cheek and noted their physiological response. Subjects abstained from nicotine or tobacco usage for 1 hour after consuming the nicotine strip, then placed the 6-methylnicotine strip according to the disclosure against the inside of their cheek and noted their physiological response.

[2] = measured approximately 1 minute after placing the pouch adjacent to the gum line; five blindfolded volunteer subjects, one-hour break between tests
Method: Five volunteer subjects compared the effects of nicotine consumption and 6-methylnicotine consumption on blood pressure Subjects were blindfolded and had their blood pressure measured before using a pouch (to provide a baseline blood pressure) and re-measured approximately 1 minute after placing a nicotine pouch or a 6-methylnicotine pouch adjacent to the gum line. All subjects performed the test with a nicotine pouch and with a 6-methylnicotine pouch on the same day with a one-hour break between the tests.

[3] = Method: Six volunteer subjects who are regular users of nicotine pouches containing 8 mg of nicotine were each administered an oral pouch of the disclosure containing 3 mg of 6-methylnicotine. Each subject used the 6-methylnicotine pouch in the same manner as a nicotine pouch, by placing the pouch inside the mouth and adjacent to the lip and gum.

Cc1ccc([C@@H]2CCCN2C)cn1 (stereo in doubt) [6-methylnicotine]
physiological response (as a perceived "head rush") [1]: stronger physiological response
blood pressure following usage of a 6-methylnicotine pouch versus a nicotine pouch [2]: No significant difference
physiological effect, such as a "head rush" experienced during pouch usage ([3]; in vivo, po): more potent physiological effect
desire to use nicotine- or tobacco-based products after use of the pouch ([3]; oral pouch containing 3 mg of 6-methylnicotine, six volunteer subjects who regularly use 8 mg nicotine pouches, self-reported): zero desire to use nicotine- or tobacco-based products
